Assay results as given in patent US10398751B2, “Pharmaceutical compositions of water soluble peptides with poor solubility in isotonic conditions and methods for their use” (STRONGBRIDGE IRELAND LIMITED, priority 2016, dated 2019).
Several values for one entry are separate records, joined by “and”; a condition that tells them apart may be missing. Equal values may be shown once. Where a name gives a salt, the structure may show the parent alone. Read-outs that look alike come from different tables or passages of the source. Values belong to the compound of their own block, whether it stands above or below them.

Experiments:
Format in all cases: physicochemical
[1] = Solubility of COR005 acetate in aqueous media with additives at 25° C.; details: read-out: Solubility of COR005 Acetate (mg/ml) at 25° C.
Excerpt: Table 3 summarizes the solubility values of COR005 acetate in various aqueous media, the effects of additives such as DEX and HPB on the peptide solubility in saline and physiological conditions, as well as the PK profile of IR and MS formulations prepared with these additives in comparison to COR005 without additives as control.
Note that both media (PBS or Saline) contained physiological concentrations of chloride which indicates the incompatibility and salting out of the peptide in the presence of the chloride ion.
The relatively high solubility of COR005 acetate in 5% dextrose (in water) of greater than 500 mg/ml indicates the improved solubility of the peptide in water with dextrose. […] Note that this 1:1 diluted dextrose in saline was used as a vehicle in the IR study of COR005 acetate in rats and minipigs (the DEX:PEP ratio was 5:1).

[2] = Density, pH and surface tension of solutions (capillary method); details: for reduction of surface tension of water: DDW, baseline 64.9 dyne/cm
Description: Tween 80 was used as a control surfactant for comparison. Densities were measured on 1 mL fixed volume samples. […] The effect of veldoreotide acetate on the pH of double distilled water (DDW) was the same at all veldoreotide acetate concentrations. The pH of DDW of 5.0 was reduced to pH 4.5. The effect of veldoreotide acetate on the density of DDW (starting density of DDW was 1.003 g/ml) was concentration dependent from 1.4 mg/ml to 21.5 mg/ml with density ranging from 0.986 to 0.998 g/ml respectively. However, at veldoreotide acetate concentrations of 45 and 102 mg/ml the density was increased above the starting density of DDW. […] The effect of veldoreotide acetate on the surface tension of DDW (starting surface tension was 64.9 dyne/cm) was consistent with veldoreotide acetate behaving as a peptide amphiphile (surfactant). The surface tension of DDW was reduced by veldoreotide acetate at maximum from 64.9 to 45 dyne/cm. In order to elucidate the meaning of this effect, Tween 80 was used as a reference surfactant. Other surfactants include Polexamer 188. The reduction of surface tension induced by Tween 80 was in the range of 40% (from 64.9 dyne/cm to about 39 dyne/cm), in comparison to veldoreotide acetate of 30% (from 64.9 dyne/cm to about 45 dyne/cm). Note that, under these experimental conditions; the effect of Tween 80 indicated a concentration-effect relationship. Whereas, the effect of veldoreotide acetate on the reduction of surface tension was at the same range for all concentrations tested.
The data of table 4 show the surface activity of highly concentrated COR005 acetate (200 mg/ml), with or without additives in WFI, which emulates the preparation conditions of the primary emulsion of the microspheres. The results of Test 1 and 2 (Table 4) show the effect of COR005 acetate on the surface tension of water. When COR005 acetate is dissolved in water the surface tension is reduced by about 36%, from 68.5 dyne/cm for the water alone to 44 dyne/cm for the solution of water with CR005 acetate at 200 mg/ml.

[3] = Emulsification of cottonseed oil and water for injection
Description: Based on its amphiphilic properties, veldoreotide acetate was evaluated by means of emulsion formulation. […] Thus, veldoreotide acetate may be considered a w/o ionic surfactant or hydrotrope with a hydrophilic lipophilic balance (HLB) of 6.
The samples were mixed using 25G syringe and vortexed at room temperature.
Veldoreotide was formulated as a water in oil emulsion using 80% (wt %) cottonseed oil, 20% (wt %) water for injection (WFI) and 1% (wt %) veldoreotide acetate. Specifically, 10 mg of veldoreotide acetate was dissolved in 200 uL WFI in a 5 mL glass vial, 800 mg of cottonseed oil was added and the resulting mixture was stirred under magnetic stirring at room temperature for 15 minutes at 1000 rpm. The emulsion was then viewed under the light microscope and stored under refrigeration. The resulting emulsion was stable and found to be injectable via 27G needle.

[4] = 1.4 mg/ml in DDW pH 4.5, 25° C.
[5] = 102 mg/ml in DDW pH 4.5, 25° C.
[6] = 200 mg/ml + 50 mg/ml HPBCD in WFI (HPB:PEP 1:4), 5° C.
[7] = 200 mg/ml + 100 mg/ml HPBCD in WFI (HPB:PEP 1:2), 5° C.
[8] = 200 mg/ml in 5% Dextrose in WFI (DEX:PEP 1:8), 5° C.

solubility ([1]; 0.45% NaCl with […] dextrose (isotonic), Isotonic 0.45NS (0.45% NaCl) 2.5D Dextrose […], DEX:PEP 5:1): 6 to 7 mg/mL | solubility ([1]; 0.45% NaCl, 0.45NS - 0.45% NaCl, additives none): 3 mg/mL | solubility ([1]; 5% dextrose in water (isotonic), 5% Dextrose Isotonic, additives none): ≥ 300 mg/mL | solubility ([1]; isotonic PBS pH 7.4, pH 7.4, PBS pH 7.4 Isotonic, HPB:PEP 1:1): 4.5 mg/mL | solubility ([1]; isotonic PBS pH 7.4, pH 7.4, PBS pH 7.4 Isotonic, HPB:PEP 1:4): 2.5 mg/mL | solubility ([1]; isotonic PBS pH 7.4, pH 7.4, PBS pH 7.4 Isotonic, HPB:PEP 10:1): 10 mg/mL | solubility ([1]; isotonic PBS with HPB, pH 7.4, PBS pH 7.4 Isotonic, HPB:PEP 1:2): 2.5 mg/mL | solubility ([1]; isotonic PBS with dextrose, pH 7.4, PBS pH 7.4 Isotonic, DEX:PEP 1:8): 2 mg/mL | solubility ([1]; isotonic PBS with dextrose, pH 7.4, PBS pH 7.4 Isotonic, DEX:PEP 5:1): 1.6 mg/mL | solubility ([1]; isotonic saline, Saline Isotonic, HPB:PEP 15:1): 10 mg/mL | solubility ([1]; isotonic saline, Saline Isotonic, Lys-HCl:PEP 4:1): 1.7 mg/mL | solubility ([1]; lactic acid buffer pH 4.0, isotonic, pH 4, Lactic acid buffer pH 4.0 Isotonic, MAN:PEP 20:1, HPB:PEP 15:1, Est. = estimated by UV-Vis): 500 mg/mL | solubility ([1]; lactic acid buffer pH 4.0, isotonic, pH 4, Lactic acid buffer pH 4.0 Isotonic, Mannitol MAN:PEP 20:1, Est. = estimated by UV-Vis): 500 mg/mL | solubility ([1]; normal saline (0.9% NaCl), NS - 0.9% NaCl, additives none): 1 to 2 mg/mL | solubility ([1]; water, additives none): ≥ 300 mg/mL | % change in surface tension compared to baseline [2, 4]: −30% | Density (g/ml) Weighted 1 ml [2, 4]: 0.986 g/mL | Surface tension (dyne/cm) capillary method [2, 4]: 45.2 dyne/cm | density of DDW solution ([2]; 1.4 mg/ml to 21.5 mg/ml, starting density of DDW 1.003 g/ml): 0.986 to 0.998 g/mL | % change in surface tension compared to baseline ([2]; 12 mg/ml in DDW pH 4.5, 25° C.): −28% | Density (g/ml) Weighted 1 ml ([2]; 12 mg/ml in DDW pH 4.5, 25° C.): 0.994 g/mL | Surface tension (dyne/cm) capillary method ([2]; 12 mg/ml in DDW pH 4.5, 25° C.): 46.9 dyne/cm | % change in surface tension compared to baseline ([2]; 21 mg/ml in DDW pH 4.5, 25° C.): −27% | Density (g/ml) Weighted 1 ml ([2]; 21 mg/ml in DDW pH 4.5, 25° C.): 0.998 g/mL | Surface tension (dyne/cm) capillary method ([2]; 21 mg/ml in DDW pH 4.5, 25° C.): 47.1 dyne/cm | % change in surface tension compared to baseline ([2]; 45 mg/in DDW pH 4.5, 25° C.): −29% | Density (g/ml) Weighted 1 ml ([2]; 45 mg/in DDW pH 4.5, 25° C.): 1.003 g/mL | Surface tension (dyne/cm) capillary method ([2]; 45 mg/in DDW pH 4.5, 25° C.): 45.97 dyne/cm | % change in surface tension compared to baseline [2, 5]: −24% | Density (g/ml) Weighted 1 ml [2, 5]: 1.015 g/mL | Surface tension (dyne/cm) capillary method [2, 5]: 49.3 dyne/cm | % change in surface tension compared to baseline [2, 6]: −34% | Density (g/ml) Weighted 1 ml [2, 6]: 1.04 g/mL | Surface tension (dyne/cm) capillary method [2, 6]: 45 dyne/cm | % change in surface tension compared to baseline [2, 7]: −26% | Density (g/ml) Weighted 1 ml [2, 7]: 1.12 g/mL | Surface tension (dyne/cm) capillary method ([2]; 200 mg/ml + 100 mg/ml HPBCD in WFI (HPB:PEP 1:2), 5° C., acetate salt): 51 dyne/cm | Surface tension (dyne/cm) capillary method ([2]; 200 mg/ml + 100 mg/ml HPBCD in WFI (HPB:PEP 1:2), 5° C., listed as peptide, acetate salt): 52 dyne/cm and 51 dyne/cm | % change in surface tension compared to baseline [2, 8]: −14% | Density (g/ml) Weighted 1 ml [2, 8]: 1.03 g/mL | Surface tension (dyne/cm) capillary method ([2]; 200 mg/ml in 5% Dextrose in WFI (DEX:PEP 1:8), 5° C., acetate salt): 54 dyne/cm | Surface tension (dyne/cm) capillary method ([2]; 200 mg/ml in 5% Dextrose in WFI (DEX:PEP 1:8), 5° C., listed as peptide, acetate salt): 54 dyne/cm | Density (g/ml) Weighted 1 ml ([2]; 200 mg/ml in WFI, 5° C.): 1.03 g/mL | Surface tension (dyne/cm) capillary method ([2]; 200 mg/ml in WFI, 5° C.): 44 dyne/cm | % change in surface tension compared to baseline ([2]; 200 mg/ml in WFI, 5° C., acetate salt): −36% | % change in surface tension compared to baseline ([2]; 200 mg/ml in WFI, 5° C., listed as COR005 acetate, acetate salt): about 36% | surface tension of DDW solution ([2]; DDW pH 5.0, 25° C., baseline 64.9 dyne/cm (text summary, concentration not specified), acetate salt): about 45 dyne/cm | reduction of surface tension of water ([2]; 25° C., acetate salt): 30% | pH of DDW solution ([2]; all concentrations, DDW pH 5.0 before): 4.5 | hydrophilic lipophilic balance (HLB) ([3]; w/o ionic surfactant or hydrotrope): 6
SMILES: C[C@@H](O)[C@@H]1NC(=O)[C@H](CCCCN)NC(=O)[C@@H](Cc2c[nH]c3ccccc23)NC(=O)[C@H](Cc2c[nH]c3ccccc23)NC(=O)[C@H](Cc2ccccc2)NC(=O)CCCNC(=O)CCCN(CC(N)=O)C(=O)[C@H](Cc2ccccc2)NC1=O [Veldoreotide Acetate, Cyclo(-γ-aminobutyryl-L-phenylalanyl-L-tryptophanyl-D-tryptophanyl-L-lysyl-L-threonyl-L-phenylalanyl-N-carbamoylmethyl-γ-aminobutyryl), acetate salt]

solubility ([1]; isotonic 5% dextrose in water, 5% Dextrose Isotonic, additives none): > 500 mg/mL | reduction of surface tension of water ([2]; 25° C.): more than 30% | emulsification ([3]; 16.6 weight % cottonseed oil, 74.2 weight % WFI, 9.2 weight % peptide, room temperature): allowing an emulsion to form
SMILES: C[C@@H](O)[C@@H]1NC(=O)[C@H](CCCCN)NC(=O)[C@@H](Cc2c[nH]c3ccccc23)NC(=O)[C@H](Cc2c[nH]c3ccccc23)NC(=O)[C@H](Cc2ccccc2)NC(=O)CCCNC(=O)CCCN(CC(N)=O)C(=O)[C@H](Cc2ccccc2)NC1=O [Veldoreotide, cyclo(-γ-aminobutyryl-L-phenylalanyl-L-tryptophanyl-D-tryptophanyl-L-lysyl-L-threonyl-L-phenylalanyl-N-carbamoylmethyl-γ-aminobutyryl)]
